Laboratory results: PubChem BioAssay (NCI)
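Dose response: 5 concentrations. Exposure: 48 h. Format: 96-well plates. Endpoint: linear interpolation; highest concentration if not reached. TGI is the concentration that stops growth completely.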 Where a SMILES comes first, the peptide text is derived from it. [ ]: non-standard residue; d: D form. pGlu = O=C1CC[CH](C(=O)O)N1

Legend:
Experiment in all cases: NCI-60 cell line screen, 48 h
[1] = system: 786-0 renal
[2] = system: CAKI-1 renal
[3] = system: HCT-116 colon
[4] = system: MDA-MB-231 breast
[5] = system: MDA-MB-435
[6] = system: MOLT-4 leukemia
[7] = system: NCI-H460 lung
[8] = system: OVCAR-3 ovarian
[9] = system: OVCAR-8 ovarian
[10] = system: PC-3 prostate
[11] = system: SF-539 CNS
[12] = system: SK-MEL-28 melanoma
[13] = system: SR leukemia

| SMILES | TGI [1] | TGI [2] | TGI [3] | TGI [4] | TGI [5] | TGI [6] | TGI [7] | TGI [8] | TGI [9] | TGI [10] | TGI [11] | TGI [12] | TGI [13] |
| --- | --- | --- | --- | --- | --- | --- | --- | --- | --- | --- | --- | --- | --- |
| S=C(NCc1ccccc1)Nc1sc(=NCc2ccccc2)nc2sc3c(c12)CCN(N1CCc2c(sc4nc(=NCc5ccccc5)sc(NC(=S)NCc5ccccc5)c24)C1)C3 | > 40.9 µM | > 75.9 µM | > 54.2 µM | > 44 µM | > 100 µM | > 96.1 µM | > 83.9 µM | > 100 µM | > 100 µM | > 49.8 µM | > 45.9 µM | > 79 µM | – |
| O=[N+]([O-])c1ccc(-c2csc(N=Nc3c(O)[nH]c4ccccc34)n2)cc1 | > 100 µM | 39.4 µM | > 100 µM | > 100 µM | > 100 µM | > 100 µM | 22.9 µM | > 100 µM | 70 µM | 86.2 µM | 39.3 µM | > 100 µM | – |
| CC(=O)OCc1c(O)c2c([nH]c1=O)CCc1ccccc1-2 | 115 µM | 130 µM | 110 µM | – | – | > 350 µM | 283 µM | 102 µM | 291 µM | – | 177 µM | 130 µM | > 350 µM |
| CCOC(=O)C12CCC(=O)N1N(C)c1ncccc1N2 (configuration not stated) | > 100 µM | > 100 µM | > 100 µM | > 100 µM | > 100 µM | > 100 µM | > 100 µM | > 100 µM | > 100 µM | – | > 100 µM | > 100 µM | > 100 µM |
| O=c1[nH]c(NCc2cccnc2)nc2nc[nH]c12 | > 100 µM | > 100 µM | > 100 µM | > 100 µM | > 100 µM | > 100 µM | > 100 µM | > 100 µM | > 100 µM | > 100 µM | > 100 µM | – | – |
| CC(NC(=O)C1CCC(=O)N1)C(=O)N1CCCC1C(N)=O (stereo not drawn) ([pGlu]-Ala-Pro-NH2; configuration not given here) | > 100 µM | > 100 µM | > 100 µM | > 100 µM | > 100 µM | > 100 µM | > 100 µM | > 100 µM | > 100 µM | > 100 µM | – | > 100 µM | > 100 µM |
| O=C(Cc1ccc2ccccc2c1)NCc1ccc(C(=O)NCCc2ccccc2)cc1 | > 100 µM | > 100 µM | > 100 µM | > 100 µM | > 100 µM | – | > 100 µM | > 100 µM | > 100 µM | > 100 µM | – | > 100 µM | > 100 µM |
| Cc1nc2c(c(N3CCN(C)CC3)n1)Cc1ccccc1-2 | > 100 µM | 49.4 µM | > 100 µM | > 100 µM | > 100 µM | – | 47.4 µM | – | > 100 µM | > 100 µM | > 100 µM | – | – |
| O=c1onc2n1-c1ccc(Cl)cc1C(=S)N1CSCC21 (configuration not stated) | > 100 µM | > 100 µM | 95.7 µM | 41.8 µM | 23.8 µM | > 100 µM | 40 µM | > 100 µM | 39.8 µM | > 100 µM | – | > 100 µM | 48.1 µM |
| NC(=S)N1N=C2CCCCCC[C@@H]2[C@H]1c1ccccc1 | > 100 µM | > 100 µM | > 100 µM | – | – | > 100 µM | > 100 µM | > 100 µM | > 100 µM | – | > 100 µM | > 100 µM | – |
| O=[N+]([O-])c1nccn1CC(O)c1ccccc1 (configuration not stated) | > 100 µM | > 100 µM | – | – | – | > 100 µM | > 100 µM | > 100 µM | > 100 µM | – | > 100 µM | > 100 µM | – |
| CCCCN(CC)C(=O)C(=O)Cc1nc2ccc(C(=O)c3ccccc3)cc2[nH]c1=O | > 100 µM | > 100 µM | > 100 µM | – | – | > 31.6 µM | > 100 µM | > 100 µM | > 100 µM | – | > 100 µM | > 100 µM | > 31.6 µM |
| CN(C)CCNc1ccc2ncn3c4ccc(O)cc4c(=O)c1c23 | 13.3 µM | 4.83 µM | 11.5 µM | 5.44 µM | 14.7 µM | 10.5 µM | 6.5 µM | 13.4 µM | 7.76 µM | 10.8 µM | 14.7 µM | 18 µM | – |
| O=C(Nc1ccccc1)N(CCN(Cc1ccccc1)C(=O)Nc1ccccc1)CCN(Nc1ccccc1)C(=O)Nc1ccccc1 | > 100 µM | > 100 µM | > 100 µM | > 100 µM | > 100 µM | > 100 µM | > 100 µM | > 100 µM | > 100 µM | > 100 µM | – | > 100 µM | > 100 µM |
| O=S1(=O)c2ccccc2N(O)C2=NCCN21 | > 100 µM | > 100 µM | > 100 µM | – | – | > 100 µM | > 100 µM | > 100 µM | > 100 µM | – | > 100 µM | > 100 µM | > 100 µM |
